Assay results taken from patent US8802597B2, “Herbicidal pyrimidines” (E I du Pont de Nemours and Company, priority 2003, dated 2014).
Like-named read-outs stand apart in the source and are kept apart here.

Legend:
Type in all cases: in vivo
[1] = system: chickweed (Stellaria media); assay: Test C postemergence; settings: for Plant response rating, Chickweed: scale 0 to 100
Outline: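 Percent control is a visual rating (0 none, 100 complete) taken against untreated plants after 12 to 14 days of greenhouse growth. Applications were made preemergence to seeded pots and postemergence to plants at the 1- to 4-leaf stage, in a non-phytotoxic surfactant-containing solvent.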

[2] = system: giant foxtail (Setaria faberii); assay: Test C pre/postemergence; settings: for pest or weed control at 125 g/ha / pest or weed control at 31 g/ha / pest or weed control at 62 g/ha / pest or weed control at 250 g/ha: Setaria faberi; for pest or weed control at 31 g/ha: 31 g ai/ha
Source text: (§1) Seeds or nutlets of plant species selected from bermudagrass (Cynodon dactylon), Surinam grass (Brachiaria decumbens), cocklebur (Xanthium strumarium), corn (Zea mays), crabgrass (Digitaria sanguinalis), woolly cupgrass (Eriochloa villosa), giant foxtail (Setaria faberii), goosegrass (Eleusine indica), johnsongrass (Sorghum halepense), kochia (Kochia scoparia), lambsquarters (Chenopodium album), morningglory (Ipomoea coccinea), eastern black nightshade (Solanum ptycanthum), yellow nutsedge (Cyperus esculentus), pigweed (Amaranthus retroflexus), common ragweed (Ambrosia elatior), soybean (Glycine max), common (oilseed) sunflower (Helianthus annuus), and velvetleaf (Abutilon theophrasti) were planted and treated preemergence with test chemicals formulated in a non-phytotoxic solvent mixture which included a surfactant.
(§2) At the same time, plants selected from these crop and weed species and also winter barley (Hordeum vulgare), blackgrass (Alopecurus myosuroides), canarygrass (Phalaris minor), chickweed (Stellaria media), downy brome (Bromus tectorum), green foxtail (Setaria viridis), Italian ryegrass (Lolium multiflorum), wheat (Triticum aestivum), wild oat (Avena fatua) and windgrass (Apera spica-venti) were treated with postemergence applications of some of the test chemicals formulated in the same manner. Plants ranged in height from 2 to 18 cm (1- to 4-leaf stage) for postemergence treatments. Plant species in the flooded paddy test consisted of rice (Oryza sativa), umbrella sedge (Cyperus difformis), duck salad (Heteranthera limosa) and barnyardgrass (Echinochloa crus-galli) grown to the 2-leaf stage for testing. Treated plants and controls were maintained in a greenhouse for 12 to 14 days, after which time all species were compared to controls and visually evaluated. Plant response ratings, summarized in Table C, are based on a scale of 0 to 100 where 0 is no effect and 100 is complete control. A dash (-) response means no test result.

[3] = system: crabgrass (Digitaria sanguinalis); assay: Test C pre/postemergence; settings: for pest or weed control at 31 g/ha / pest or weed control at 62 g/ha / pest or weed control at 125 g/ha / pest or weed control at 250 g/ha: Digitaria sanguinalis; for pest or weed control at 31 g/ha: 31 g ai/ha
Source text: as §1, §2

[4] = system: Surinam grass (Brachiaria decumbens); assay: Test C pre/postemergence; settings: for pest or weed control at 125 g/ha / pest or weed control at 31 g/ha / pest or weed control at 62 g/ha / pest or weed control at 250 g/ha: Urochloa decumbens; for pest or weed control at 31 g/ha: 31 g ai/ha
Source text: as §1, §2

[5] = system: yellow nutsedge (Cyperus esculentus); assay: Test C pre/postemergence; settings: for pest or weed control at 31 g/ha / pest or weed control at 62 g/ha / pest or weed control at 125 g/ha / pest or weed control at 250 g/ha: Cyperus; for pest or weed control at 31 g/ha: 31 g ai/ha
Source text: as §1, §2

[6] = Postemergence, 62 g ai/ha, scale 0 to 100 (0 no effect, 100 complete control)
[7] = Postemergence, 125 g ai/ha, scale 0 to 100 (0 no effect, 100 complete control)
[8] = Postemergence, 250 g ai/ha, scale 0 to 100
[9] = Postemergence, 500 g ai/ha, scale 0 to 100
[10] = Preemergence, 62 g ai/ha, scale 0 to 100, 0 no effect, 100 complete control
[11] = Preemergence, 125 g ai/ha, scale 0 to 100
[12] = Preemergence, 250 g ai/ha, scale 0 to 100
[13] = Preemergence, 500 g ai/ha, scale 0 to 100

`COC(=O)c1nc(C2CC2C)nc(N)c1Br` (centres unmarked) [Compound 28] was tested, and the “Chickweed plant response rating” value ([1]; 62 g ai/ha, scale 0 to 100 (0 no effect, 100 complete control)) was 0, the “Chickweed plant response rating” value ([1]; 125 g ai/ha, scale 0 to 100 (0 no effect, 100 complete control)) was 0 and the “Plant response rating, Chickweed” value ([1]; 250 g ai/ha) was 15. The “Plant response rating, Chickweed” value ([1]; 500 g ai/ha) was 20, the “Foxtail, Giant plant response rating” value [2, 6] was 0 and the “Foxtail, Giant plant response rating” value [2, 7] was 0. The “Plant response rating, Foxtail, Giant” value [2, 8] was 0, the “Plant response rating, Foxtail, Giant” value [2, 9] was 15 and the “Plant response rating, Foxtail, Giant” value [2, 10] was 0. The “Plant response rating, Foxtail, Giant” value [2, 11] was 0, the “Plant response rating, Foxtail, Giant” value [2, 12] was 0 and the “Plant response rating, Foxtail, Giant” value [2, 13] was 0. For the same compound, the “Crabgrass plant response rating” value [3, 6] was 0, the “Crabgrass plant response rating” value [3, 7] was 0 and the “Plant response rating, Crabgrass” value [3, 8] was 0. The “Plant response rating, Crabgrass” value [3, 9] was 20, the “Surinam Grass plant response rating” value [4, 6] was 0 and the “Surinam Grass plant response rating” value [4, 7] was 0. The “Plant response rating, Surinam Grass” value [4, 8] was 0, the “Plant response rating, Surinam Grass” value [4, 9] was 0 and the “Plant response rating, Surinam Grass” value [4, 10] was 0. For the same compound, the “Plant response rating, Surinam Grass” value [4, 11] was 0, the “Plant response rating, Surinam Grass” value [4, 12] was 0 and the “Plant response rating, Surinam Grass” value [4, 13] was 0. For the same compound, the “Nutsedge, Yellow plant response rating” value [5, 6] was 0, the “Nutsedge, Yellow plant response rating” value [5, 7] was 0 and the “Plant response rating, Nutsedge, Yellow” value [5, 8] was 0. The “Plant response rating, Nutsedge, Yellow” value [5, 9] was 0, the “Plant response rating, Nutsedge, Yellow” value [5, 10] was 0 and the “Plant response rating, Nutsedge, Yellow” value [5, 11] was 0. The “Plant response rating, Nutsedge, Yellow” value [5, 12] was 0 and the “Plant response rating, Nutsedge, Yellow” value [5, 13] was 0.

Work on `CCOC(=O)c1nc(C2CC2)nc(N)c1F` [Compound 30] yielded a pest or weed control at 31 g/ha ([1]; Stellaria media, post-emergence, 31 g ai/ha, read-out: Plant response rating (scale of 0 to 100), Chickweed) of 40%, a pest or weed control at 62 g/ha ([1]; Stellaria media, post-emergence, 62 g ai/ha, scale 0 to 100 (0 no effect, 100 complete control), read-out: Chickweed plant response rating) of 50% and a pest or weed control at 125 g/ha ([1]; Stellaria media, post-emergence, 125 g ai/ha, scale 0 to 100 (0 no effect, 100 complete control), read-out: Chickweed plant response rating) of 65%. It also gave a pest or weed control at 250 g/ha ([1]; Stellaria media, post-emergence, 250 g ai/ha, scale 0 to 100, read-out: Plant response rating, Chickweed) of 85%, a pest or weed control at 125 g/ha ([2]; post-emergence, Postemergence, 125 g ai/ha, scale 0 to 100 (0 no effect, 100 complete control), read-out: Foxtail, Giant plant response rating) of 0% and a pest or weed control at 31 g/ha ([2]; post-emergence, Postemergence, read-out: Plant response rating (scale of 0 to 100), Foxtail, Giant) of 0%. For the same compound, the pest or weed control at 62 g/ha ([2]; post-emergence, Postemergence, 62 g ai/ha, scale 0 to 100 (0 no effect, 100 complete control), read-out: Foxtail, Giant plant response rating) was 0%, the pest or weed control at 250 g/ha ([2]; post-emergence, Postemergence, 250 g ai/ha, scale 0 to 100, read-out: Plant response rating, Foxtail, Giant) was 40% and the pest or weed control at 31 g/ha ([2]; pre-emergence, Preemergence, scale 0 to 100, 0 no effect, 100 complete control, read-out: Plant response rating, Foxtail, Giant) was 0%. It also gave a pest or weed control at 62 g/ha ([2]; pre-emergence, Preemergence, 62 g ai/ha, scale 0 to 100, 0 no effect, 100 complete control, read-out: Plant response rating, Foxtail, Giant) of 0%, a pest or weed control at 125 g/ha ([2]; pre-emergence, Preemergence, 125 g ai/ha, scale 0 to 100, read-out: Plant response rating, Foxtail, Giant) of 20% and a pest or weed control at 250 g/ha ([2]; pre-emergence, Preemergence, 250 g ai/ha, scale 0 to 100, read-out: Plant response rating, Foxtail, Giant) of 60%. It also gave a pest or weed control at 31 g/ha ([3]; post-emergence, Postemergence, read-out: Plant response rating (scale of 0 to 100), Crabgrass) of 0%, a pest or weed control at 62 g/ha ([3]; post-emergence, Postemergence, 62 g ai/ha, scale 0 to 100 (0 no effect, 100 complete control), read-out: Crabgrass plant response rating) of 0% and a pest or weed control at 125 g/ha ([3]; post-emergence, Postemergence, 125 g ai/ha, scale 0 to 100 (0 no effect, 100 complete control), read-out: Crabgrass plant response rating) of 5%. The pest or weed control at 250 g/ha ([3]; post-emergence, Postemergence, 250 g ai/ha, scale 0 to 100, read-out: Plant response rating, Crabgrass) was 50%, the pest or weed control at 31 g/ha ([3]; pre-emergence, Preemergence, scale 0 to 100, 0 no effect, 100 complete control, read-out: Plant response rating, Crabgrass) was 0% and the pest or weed control at 62 g/ha ([3]; pre-emergence, Preemergence, 62 g ai/ha, scale 0 to 100, 0 no effect, 100 complete control, read-out: Plant response rating, Crabgrass) was 0%. It also gave a pest or weed control at 125 g/ha ([3]; pre-emergence, Preemergence, 125 g ai/ha, scale 0 to 100, read-out: Plant response rating, Crabgrass) of 70%, a pest or weed control at 250 g/ha ([3]; pre-emergence, Preemergence, 250 g ai/ha, scale 0 to 100, read-out: Plant response rating, Crabgrass) of 85% and a pest or weed control at 125 g/ha ([4]; post-emergence, Postemergence, 125 g ai/ha, scale 0 to 100 (0 no effect, 100 complete control), read-out: Surinam Grass plant response rating) of 0%. For the same compound, the pest or weed control at 31 g/ha ([4]; post-emergence, Postemergence, read-out: Plant response rating (scale of 0 to 100), Surinam Grass) was 0%, the pest or weed control at 62 g/ha ([4]; post-emergence, Postemergence, 62 g ai/ha, scale 0 to 100 (0 no effect, 100 complete control), read-out: Surinam Grass plant response rating) was 0% and the pest or weed control at 250 g/ha ([4]; post-emergence, Postemergence, 250 g ai/ha, scale 0 to 100, read-out: Plant response rating, Surinam Grass) was 35%. It also gave a pest or weed control at 31 g/ha ([4]; pre-emergence, Preemergence, scale 0 to 100, 0 no effect, 100 complete control, read-out: Plant response rating, Surinam Grass) of 0%, a pest or weed control at 62 g/ha ([4]; pre-emergence, Preemergence, 62 g ai/ha, scale 0 to 100, 0 no effect, 100 complete control, read-out: Plant response rating, Surinam Grass) of 0% and a pest or weed control at 125 g/ha ([4]; pre-emergence, Preemergence, 125 g ai/ha, scale 0 to 100, read-out: Plant response rating, Surinam Grass) of 0%. For the same compound, the pest or weed control at 250 g/ha ([4]; pre-emergence, Preemergence, 250 g ai/ha, scale 0 to 100, read-out: Plant response rating, Surinam Grass) was 20%, the pest or weed control at 31 g/ha ([5]; post-emergence, Postemergence, read-out: Plant response rating (scale of 0 to 100), Nutsedge, Yellow) was 0% and the pest or weed control at 62 g/ha ([5]; post-emergence, Postemergence, 62 g ai/ha, scale 0 to 100 (0 no effect, 100 complete control), read-out: Nutsedge, Yellow plant response rating) was 0%. The pest or weed control at 125 g/ha ([5]; post-emergence, Postemergence, 125 g ai/ha, scale 0 to 100 (0 no effect, 100 complete control), read-out: Nutsedge, Yellow plant response rating) was 0%, the pest or weed control at 250 g/ha ([5]; post-emergence, Postemergence, 250 g ai/ha, scale 0 to 100, read-out: Plant response rating, Nutsedge, Yellow) was 5% and the pest or weed control at 31 g/ha ([5]; pre-emergence, Preemergence, scale 0 to 100, 0 no effect, 100 complete control, read-out: Plant response rating, Nutsedge, Yellow) was 0%. The pest or weed control at 62 g/ha ([5]; pre-emergence, Preemergence, 62 g ai/ha, scale 0 to 100, 0 no effect, 100 complete control, read-out: Plant response rating, Nutsedge, Yellow) was 0%, the pest or weed control at 125 g/ha ([5]; pre-emergence, Preemergence, 125 g ai/ha, scale 0 to 100, read-out: Plant response rating, Nutsedge, Yellow) was 0% and the pest or weed control at 250 g/ha ([5]; pre-emergence, Preemergence, 250 g ai/ha, scale 0 to 100, read-out: Plant response rating, Nutsedge, Yellow) was 0%.
